This is an account of results in patent US11691950B2, “Isoquinoline-steroid conjugates and uses thereof” (priority 2018, dated 2023).

A word on the IC50: it is the point on the concentration scale where inhibition reaches its midpoint.

The test system of one assay is TNFα. Kind of assay: TNFα secretion assay (LPS-treated RAW264.7 macrophages, ELISA). The assay is classed as cell-based, murine. The note with it: RAW264.7 cells, 4 hrs. How it is done:
The TNFα assay quantifies secreted TNFα from RAW264.7 immortalized murine macrophages as an indicator of inflammation. The cells were concurrently treated with LPS (as an inducer of inflammation) and a titration of test molecules or control compounds for 4 hrs. After the incubation period, the media was harvested and assayed via an ELISA assay. ODs of experimental samples are fit to those of a standard curve to extrapolate the TNFα concentration. IC50 values were calculated by fitting a curve to experimental values with the controls as the top and bottom limits of the curve. Selected compounds provided herein were subjected to this assay.

A further assay has as its system TOX. In words: TOX assay. In kind it is cell-based. To be noted: HCl salt. How it is done:
Inhibition of various kinases was assayed.

A further assay has as its system myeloperoxidase activity. In words: Myeloperoxidase (MPO) activity after intravitreal LPS in mice. The assay is classed as in vivo, C57B16 male mice. To be noted: dosed at 0 and 6 hours, collected 24 hours. How it is done:
Adult C57B16 male mice were injected with 2 ng of lipopolysaccharide (LPS) intravitreally. The mice were then dosed with vehicle, compounds or control treatments (0.07% w/w, 0.02% w/w or 0.007% w/w) at times 0 and 6 hours post-injection. Aqueous humor (AH) and vitreous humor (VH) was collected 24 hours after injection of LPS and assayed for MPO activity by ELISA. Data is a compilation of two separate experiments. Statistical analysis was carried out on GraphPad prism using a multiple comparisons 1-way ANOVA with uncorrected Dunn's test. Results are shown in FIG. 5 (aqueous humor) and FIG. 6 (vitreous humor). In FIG. 5 and FIG. 6, Dex refers to dexamethasone, Compound A refers to (S)-3-amino-2-(4-(hydroxymethyl)phenyl)-N-(isoquinolin-6-yl)propanamide, *refers to p<0.05, and **refers to p<0.005. MPO levels correspond to levels of neutrophil infiltration. In the context of non-infectious inflammatory events, neutrophils cause robust levels of damage to tissues.

The structures appear in SMILES notation. Counter-ions that a name gives are not always drawn.

For the molecule `CC(C)(C)OC(=O)NC[C@@H](C(=O)Nc1ccc2cnccc2c1)c1ccc(COC(=O)CCC(=O)OCC(=O)[C@@]2(O)CC[C@H]3[C@@H]4CCC5=CC(=O)C=C[C@]5(C)[C@H]4[C@@H](O)C[C@@]32C)cc1` [Example 14], in the assay with TNFα, the IC50 stood at 0.621 µM. Consider `C[C@@H]1C[C@H]2[C@@H]3CCC4=CC(=O)C=C[C@]4(C)[C@@]3(F)[C@@H](O)C[C@]2(C)[C@@]1(O)C(=O)COC(=O)CCC(=O)OCc1ccc([C@@H](CN)C(=O)Nc2ccc3cnccc3c2)cc1` [Example 25], for which, in the assay with TOX, the IC50 worked out at 100 µM. Still for that read-out and setting: to `C[C@@H]1C[C@H]2[C@@H]3CCC4=CC(=O)C=C[C@]4(C)[C@@]3(F)[C@@H](O)C[C@]2(C)[C@@]1(O)C(=O)COC(=O)C1CC1C(=O)OCc1ccc([C@@H](CN)C(=O)Nc2ccc3cnccc3c2)cc1` (some centres unmarked) [Example 27] belongs 100 µM. For the molecule `CC1(C)O[C@@H]2C[C@H]3[C@@H]4CCC5=CC(=O)C=C[C@]5(C)[C@@]4(F)[C@@H](O)C[C@]3(C)[C@]2(C(=O)COC(=O)CCC(=O)OCc2ccc([C@@H](CN)C(=O)Nc3ccc4cnccc4c3)cc2)O1` [Example 33], the IC50 with TOX came to 55.2 µM. The “myeloperoxidase activity in aqueous humor” value in the assay with myeloperoxidase activity (FIG. 5) is “inhibiting effect”. In the assay with myeloperoxidase activity (FIG. 6), the “myeloperoxidase activity in vitreous humor” value was “inhibiting effect”. As to `C[C@@H]1C[C@H]2[C@@H]3CCC4=CC(=O)C=C[C@]4(C)[C@@]3(F)[C@@H](O)C[C@]2(C)[C@@]1(O)C(=O)COC(=O)c1ccc(C(=O)OCc2ccc([C@@H](CN)C(=O)Nc3ccc4cnccc4c3)cc2)cc1` [Example 66, 4-((S)-3-amino-1-(isoquinolin-6-ylamino)-1-oxopropan-2-yl)benzyl (2-((8S,9R,10S,11S,13S,14S,16R,17R)-9-fluoro-11,17-dihydroxy-10,13,16-trimethyl-3-oxo-6,7,8,9,10,11,12,13,14,15,16,17-dodecahydro-3H-cyclopenta[a]phenanthren-17-yl)-2-oxoethyl) terephthalate dihydrochloride], the IC50 in the assay with TOX is 100 µM. Same read-out and setting: to `C[C@@H]1C[C@H]2[C@@H]3CCC4=CC(=O)C=C[C@]4(C)[C@@]3(F)[C@@H](O)C[C@]2(C)[C@@]1(O)C(=O)COC(=O)C[C@H](N)C(=O)OCc1ccc([C@@H](CN)C(=O)Nc2ccc3cnccc3c2)cc1` [Example 83, 1-(4-((S)-3-amino-1-(isoquinolin-6-ylamino)-1-oxopropan-2-yl)benzyl) 4-(2-((8S,9R,10S,11S,13S,14S,16R,17R)-9-fluoro-11,17-dihydroxy-10,13,16-trimethyl-3-oxo-6,7,8,9,10,11,12,13,14,15,16,17-dodecahydro-3H-cyclopenta[a]phenanthren-17-yl)-2-oxoethyl) L-aspartate trihydrochloride] belongs 100 µM.
